The values below come from patent US11395857B2, “Radiolabeled melanocortin 1 receptor-specific alpha-melanocyte-stimulating hormone analogues for imaging or therapy” (PROVINCIAL HEALTH SERVICES AUTHORITY, priority 2018, dated 2022).

This data set can be described thus: In vivo stability in mouse urine at 1 h p.i. (radio-HPLC). More on the design: species or system C57BL/6J mice. As for the experimental part: All animal experiments were conducted in according to the guidelines established by Canadian Council on Animal Care and approved by Animal Ethics Committee of the University of British Columbia. Mice were housed under pathogen-free conditions and kept on twelve hours light and twelve hours dark cycle in the Animal Research Centre, BC Cancer Research Centre, Vancouver, Canada. C57BL/6J mice were anesthetized by inhalation with 2% isoflurane in 2.0 L/min of oxygen, and approximately 4-6 MBq of [^68Ga]Ga-CCZ01099 or [^68Ga]Ga-CCZ01048 was injected intravenously. The mice were allowed to recover and roam freely in their cages. At 1 h post-injection (p.i.), the mice were euthanized by CO2 inhalation and their urine was collected and analyzed on HPLC for metabolite using the conditions described above. In vivo urine stability of [^68Ga]Ga-CCZ01099 and [^68Ga]Ga-CCZ01048 were 34.0±10.4% and ≥98.0% (n≥3), respectively.
The in vivo stability tests in mouse urine were performed as described in Example 1. […] With systematic reduction in the number of N-methylations for the αMSH analogues, a decrease in in vivo stability was observed.

With `CCCC[C@H](NC(=O)CN1CCC(NC(=O)CN2CCN(CC(=O)O)CCN(CC(=O)O)CCN(CC(=O)O)CC2)CC1)C(=O)N[C@H]1CC(=O)NCCCC[C@@H](C(N)=O)N(C)C(=O)[C@H](Cc2c[nH]c3ccccc23)N(C)C(=O)[C@H](CCCNC(=N)N)N(C)C(=O)[C@@H](Cc2ccccc2)NC(=O)[C@H](Cc2c[nH]cn2)N(C)C1=O` [^68Ga-labeled CCZ01099, metal not drawn], the “In vivo urine stability, intact tracer” value was 34.0±10.4%.
